Values quoted from earlier work in patent US7482336B2, “Aminocyclohexanes as dipeptidyl peptidase-IV inhibitors for the treatment or prevention of diabetes” (Merck & Co., Inc., priority 2004, dated 2009).
Values belong to the molecule of their own block, whether it stands above or below them.

Assays:
[1] = mouse, cyclophosphamide-induced neutropenia; WO 99/56753
[2] = rats; Transplantation 63: 1495-1500 (1997)
[3] = target: T1, DPP-IV (Homo sapiens, UniProt P27487)
T1 construct: GRF is rapidly degraded in plasma to GRF[3-44]
T1 sequence (P27487 whole entry, species assumed): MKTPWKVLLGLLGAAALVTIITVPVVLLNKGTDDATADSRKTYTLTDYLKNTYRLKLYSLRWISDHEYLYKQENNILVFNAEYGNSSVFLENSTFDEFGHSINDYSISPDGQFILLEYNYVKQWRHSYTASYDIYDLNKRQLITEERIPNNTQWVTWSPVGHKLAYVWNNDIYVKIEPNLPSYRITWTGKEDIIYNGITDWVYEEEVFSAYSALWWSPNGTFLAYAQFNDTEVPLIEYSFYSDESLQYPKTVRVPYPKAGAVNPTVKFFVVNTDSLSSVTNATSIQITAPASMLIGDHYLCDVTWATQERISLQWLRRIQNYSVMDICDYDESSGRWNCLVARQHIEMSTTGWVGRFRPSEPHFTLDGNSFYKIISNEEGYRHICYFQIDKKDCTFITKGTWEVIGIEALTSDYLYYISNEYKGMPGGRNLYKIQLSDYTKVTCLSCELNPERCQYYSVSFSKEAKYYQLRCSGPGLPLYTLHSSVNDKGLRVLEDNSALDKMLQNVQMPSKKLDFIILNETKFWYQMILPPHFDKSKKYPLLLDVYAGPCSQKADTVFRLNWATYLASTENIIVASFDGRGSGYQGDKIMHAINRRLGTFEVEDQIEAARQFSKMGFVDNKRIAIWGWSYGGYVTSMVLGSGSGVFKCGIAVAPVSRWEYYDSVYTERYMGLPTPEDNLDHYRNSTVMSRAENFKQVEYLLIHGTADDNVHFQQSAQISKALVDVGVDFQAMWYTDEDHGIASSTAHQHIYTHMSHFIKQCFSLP

Molecule: CC(C)[C@H](N)C(=O)N1CCC[C@H]1B(O)O [Val-Boro-Pro]
- hematopoiesis [1]: stimulated hematopoiesis

Molecule: CC(C)N1CCC(c2ccccc2)(c2ccccc2)CC1 [Prodipine, Pro-Pro-diphenyl-phosphonate]
- cardiac allograft survival [2]: double cardiac allograft survival in rats from day 7 to day 14

- degradation of GRF in plasma to GRF[3-44] [3]: prevented
Molecule: diprotin A
